From patent US20230000774A1, “METHODS AND COMPOSITIONS PRODUCED THEREBY” (Albumedix Limited, priority 2019, published 2023)
Values after ≈ are worked out from the molar mass of the structure shown. Where two headings read alike, the source gives them in different places.

Legend:
[1] = Drug solubility testing of AP1903 in ethanol and methanol; assay type: physicochemical
Method: Drug solubility testing was undertaken to ascertain the highest concentration of drug solution that could be used for the preparation of the feed solution. […] Both were tested and found to perform similarly, with ˜40 mg of AP1903 dissolving into 1 mLl of solvent.

[2] = cited from earlier work; for Water Solubility: obtained from DrugBank, rimiducid value provided by Bellicum Pharmaceuticals (estimated); for Solubility in water (literature): unformulated API
[3] = obtained from DrugBank; total charge at pH 7.4; cited from earlier work
[4] = physchem; conditions: organic solvent or mixture, thermodynamic from solid
Method: The solubility of nine poorly soluble APIs in ethanol was investigated; Acyclovir, Aripiprazole, Bifonazole, Etravirine, Ezetimibe, Glibenclamide. […] For each API, approximately 20 mg was weighed into a scintillation vial. 3 mL of ethanol was added to each vial. Samples were vortexed until completely dissolved. If after 2 mins the sample was not dissolved, a further 3 mL of ethanol was added, and the sample was vortexed again. After another 2 mins, if the sample was still not dissolved, the API in question was classed as insoluble.
To quickly assess the APIs applicability to this method, the solubility of each API in ethanol was tested.

[5] = Solubility of APIs in ethanol water mixtures; assay type: physicochemical; conditions: ethanolic solution added to 50:50 EtOH:H2O
Method: APIs were dissolved in ethanol at the desired concentration (Tables 16 and 17). The required volume of this solution was added to a 50:50 solution of ethanol:HPLC grade water with stirring (Table 17).
To prepare the spray drying feed solution the API should preferably be soluble in 40:60 (v/v) ethanol/water mixtures. Any API that precipitated on addition of the ethanolic solution (from the previous section) to a 50:50 solution of EtOH:H2O was eliminated from the study.

[6] = Solubility of APIs in D5W solution; assay type: physicochemical; conditions: saline or isotonic, thermodynamic from solid
Method: The solution was sampled after centrifugation (13.5 k rpm for 5 minutes) and the solubility of the APIs was determined by HPLC analysis of the saturated solution.
Analysis was performed on an Agilent 1200 series HPLC employing a Waters, Xbridge Peptide BEH C18 column (150×4.6 mm i.d., 3.5 μm). […] Bifonazole was analysed using a 1 mL/min flow rate of 65:35 HPLC methanol:ammonium acetate (5 g/L, pH 2) with UV detection at 252 nm.

[7] = Dissolution of curcumin in water and after spray drying with rHA; assay type: physicochemical; conditions: unformulated
[8] = DMSO solubility testing; assay type: physicochemical
Method: 1 mL of DMSO was added to a scintillation vial containing approximately 20 mg of Ezetimibe. The sample readily dissolved with gentle mixing.
A solution preparation method that utilised an alternative solvent was investigated. The alternative solvent needed to be similar to ethanol in its ability to dissolve the APIs whilst being miscible with water. Dimethyl sulfoxide (DMSO) was chosen as a promising candidate. Ezetimibe was chosen as a suitable API owing to its favourable COSHH assessment combined with the knowledge of DMSO as a transport agent. The solubility of Ezetimibe in DSMO was assessed by dissolving approx. 20 mg of API in 1 mL of solvent. […] The next step was to assess the API solubility in a mixture of DMSO and water.

[9] = D5W solution, unformulated API, saturated solution, read-out: Solubility in D5W solution

SMILES	Water Solubility [2]	Physiological Charge [3]	solubility ([4]; Soluble (>[…]) in EtOH?)	Soluble in EtOH/H2O mixture [5]	further results
CC[C@H](C(=O)N1CCCC[C@H]1C(=O)O[C@H](CCc1ccc(OC)c(OC)c1)c1cccc(OCC(=O)NCCNC(=O)COc2cccc([C@@H](CCc3ccc(OC)c(OC)c3)OC(=O)[C@@H]3CCCCN3C(=O)[C@@H](CC)c3cc(OC)c(OC)c(OC)c3)c2)c1)c1cc(OC)c(OC)c(OC)c1 [AP1903, 1,2-Ethanediylbis[imino(2-oxo-2,1-ethanediyl)oxy-3,1-phenylene(1R)-3-(3,4-dimethoxyphen-yl)-1,1-propanediyl] (2S,2'S)bis{1-[(2S)-2-(3,4,5-trimethoxyphenyl)butanoyl]-2-piperidine-carboxylate}]	approximately 0.000001 mg/mL	0			amount of AP1903 dissolving in ethanol ([1]; dissolving into 1 mL of ethanol): ~40 mg; amount of AP1903 dissolving in methanol ([1]; dissolving into 1 mL of methanol): ~40 mg; Water Solubility ([2]; listed as Rimiducid (AP1903)): 0.001 µg/mL; water solubility (estimated) ([2]; provided by Bellicum Pharmaceuticals): 0.7 nM (≈ 0.988 ng/mL)
Nc1nc2c(ncn2COCCO)c(=O)[nH]1 [Acyclovir]			< 1200 µg/mL		
O=C1CCc2ccc(OCCCCN3CCN(c4cccc(Cl)c4Cl)CC3)cc2N1 [Aripiprazole]			> 1200 µg/mL	No	solubility ([4]; approximate concentration in ethanol at which completely solubilised): ~2200 µg/mL (≈ 4910 µM)
c1ccc(-c2ccc(C(c3ccccc3)n3ccnc3)cc2)cc1 (stereo not drawn) [Bifonazole]	2.45 µg/mL	0	> 1200 µg/mL	Yes	solubility at 2 min [6]: 3.5 µg/mL (≈ 11.3 µM); Solubility in water (literature) [2]: 2.5 µg/mL (≈ 8.05 µM)
COc1cc(/C=C/C(=O)CC(=O)/C=C/c2ccc(O)c(OC)c2)ccc1O [Curcumin]					Water Solubility [7]: poorly water soluble
C#C[C@]1(O)CC[C@H]2[C@@H]3CCC4=Cc5oncc5C[C@]4(C)[C@H]3CC[C@@]21C [Danazol]		0			
Cc1cc(C#N)cc(C)c1Oc1nc(Nc2ccc(C#N)cc2)nc(N)c1Br [Etravirine]	16.9 µg/mL	0	< 1200 µg/mL		
O=C1[C@H](CC[C@H](O)c2ccc(F)cc2)[C@@H](c2ccc(O)cc2)N1c1ccc(F)cc1 [Ezetimibe]	8.46 µg/mL	0	> 1200 µg/mL	Yes	solubility in a mixture of DMSO and water ([8]; addition to a 50:50 DMSO:water mixture): remained in solution; solubility in DMSO ([8]; approx. 20 mg of API in 1 mL of DMSO): dissolved readily with gentle agitation; solubility at 2 min [6, 9]: 3.4 µg/mL (≈ 8.3 µM); Solubility in water (literature) [2]: 8.5 µg/mL (≈ 20.8 µM)
COc1ccc(Cl)cc1C(=O)NCCc1ccc(S(=O)(=O)NC(=O)NC2CCCCC2)cc1 [Glibenclamide]			< 1200 µg/mL		
Cc1cccc(C)c1OCC(=O)N[C@@H](Cc1ccccc1)[C@@H](O)C[C@H](Cc1ccccc1)NC(=O)[C@H](C(C)C)N1CCCNC1=O [Lopinavir]	1.92 µg/mL		> 1200 µg/mL	Yes	solubility at 2 min [6]: 14.9 µg/mL (≈ 23.7 µM); Solubility in water (literature) [2]: 1.9 µg/mL (≈ 3.02 µM)
O=C1NC(=O)C(c2ccccc2)(c2ccccc2)N1 [Phenytoin]	71.1 µg/mL	0	> 1200 µg/mL	Yes	solubility at 2 min [6, 9]: 14.1 µg/mL (≈ 55.9 µM); Solubility in water (literature) [2]: 71.1 µg/mL (≈ 282 µM)
CO[C@H]1C[C@@H]2CC[C@@H](C)[C@@](O)(O2)C(=O)C(=O)N2CCCC[C@H]2C(=O)O[C@H]([C@H](C)C[C@@H]2CC[C@@H](O)[C@H](OC)C2)CC(=O)[C@H](C)/C=C(\C)[C@@H](O)[C@@H](OC)C(=O)[C@H](C)C[C@H](C)/C=C/C=C/C=C/1C [Rapamycin (sirolimus), Rapamycin]	1.73 µg/mL				
CC(C)c1nc(CN(C)C(=O)N[C@H](C(=O)N[C@@H](Cc2ccccc2)C[C@H](O)[C@H](Cc2ccccc2)NC(=O)OCc2cncs2)C(C)C)cs1 [Ritonavir]		0			
C=CC[C@@H]1/C=C(\C)C[C@H](C)C[C@H](OC)[C@H]2O[C@@](O)(C(=O)C(=O)N3CCCC[C@H]3C(=O)O[C@H](/C(C)=C/[C@@H]3CC[C@@H](O)[C@H](OC)C3)[C@H](C)[C@@H](O)CC1=O)[C@H](C)C[C@@H]2OC [Tacrolimus]	4.02 µg/mL	0			
